Experimental data as given in patent publication US9833433B1, “Compositions, methods of use, and methods of treatment” (priority 2013, dated 2017).

Key:
[1] = tested on: COX-2; experiment: COX-2 expression in neuronal and astroglial cell-enriched cultures; format: cell-based; details: assayed 12 hr after treatment
Description: Relative pure hippocampal neurons (astroglial cells<2%), mixed neurons and astroglial cells (astroglial cells ˜10%), and astroglial cell-enriched (astroglial cells>95%), and NG108-15 cell cultures were made as described previously (Sang et al, 2005; Zhang and Chen, 2008).
Primary hippocampal neurons (astroglial cells<2%), mixed neurons and astroglial cells (astroglial cells ˜10%), astroglial cell-enriched (astroglial cells>95%) and NG108-15 cells were cultured as described previously (Sang et al, 2005; Zhang and Chen, 2008). The extent of neurons and astroglial cells in culture were controlled by different treatments, which was estimated by using immunostaining with NeuN, a neuronal marker, glial fibrillary acidic protein (GFAP), an astrocytic marker, and OX-42, a microglial marker, in conjunction with DAPI staining.

[2] = tested on: PGE2; experiment: PGE2 assay in hippocampal tissue (enzyme immunoassay); format: in vivo, mice; details: 10 mg/kg; detected 4 hrs after injection
Source text: PGE2 in hippocampal tissue was detected using PGE2 enzyme immunoassay kit (Cayman Chemical, Ann Arbor, Mich.) according to the procedure described by the manufacturer (Zhang and Chen, 2008).

[3] = tested on: NF-κB p65 binding to ptgs2 promoter; format: cell-based; details: mixed culture; Δ^9-THC 30 μM
[4] = tested on: CREB; experiment: Phosphorylation of hippocampal CREB; details: WT mice; Δ^9-THC for 7 days
[5] = tested on: neprilysin (NEP); experiment: Neprilysin expression in 5XFAD APP transgenic mice (immunoblot); format: in vivo; details: TG mice
Description: Western blot assay was conducted using specific antibodies (Table S1) to determine expressions of COX-2, glutamate receptor subunits, PSD-95, G-protein subunits, phosphoproteins, BACE1 and neprilysin in hippocampal tissue and/or in cultured cells as described previously (Chen et al., 2012). Surface biotinylation assays were performed to determine surface expression of glutamate receptor subunits in hippocampal slices as described previously (Fan et al., 2010).

[6] = tested on: fear memory; experiment: Fear conditioning test (contextual memory); format: in vivo, mice; details: 10 mg/kg once a day for 7 days; freezing 24 hrs after last injection
Description: (§1) The classic Morris water maze and fear conditioning tests were performed to determine spatial and fear memory as described previously (Chen et al., 2012). The ‘open field’ test was conducted to detect the locomotor activity and the bar test was used to detect catalepsy (Egashira et al., 2007).
Hippocampus-dependent contextual memory was determined using a fear-conditioning working-station (Coulbourn Instruments, Allentown, Pa.) and a one-trial protocol as describe previously (Chen et al., 2006a; 2006b). Mice were individually put into the shock chamber and allowed to freely explore the environment for 150 seconds. Immediately after this, a tone at 90 dB and 2,800 Hz (CS) was delivered for 30 seconds, and at the last 2 seconds a foot shock at 0.8 mA was delivered to the mice for 2 seconds (US). After the pairing of CS/US, mice were allowed to stay in the chamber for another 30 seconds and then returned to their home cages. Then the animals started receiving vehicle, Δ^9-THC (10 mg/kg), NS398 (10 mg/kg), Δ^9-THC+NS398 once a day for 7 days. Fear memory test was conducted 24 hours after the cessation of the last injections. For contextual conditioning, mice were individually put back into the chamber where they received the shock and the freezing response was recorded for 5 minutes with a sampling method at an interval of 5 seconds. […]

[7] = tested on: Akt, ERK, and p38MAPK; experiment: Phosphorylation of Akt, ERK and p38MAPK in NG108-15 cells; details: Δ^9-THC 30 μM
[8] = tested on: COX-1; experiment: Hippocampal COX-1 expression in mice (immunoblot); format: in vivo; details: Δ^9-THC 10 mg/kg, detected 4 hrs after injection
[9] = tested on: COX-2; experiment: Hippocampal COX-2 expression in mice (immunoblot); format: in vivo
[10] = tested on: spatial memory; experiment: Morris water maze test (spatial memory); format: in vivo, mice; details: 10 mg/kg once a day for 7 days
Description: as §1
The classic Morris water maze test was used to determine spatial memory as described previously (Chen et al., 2012). A circular water tank (diameter 120 cm and 75 cm in high) was filled with water and the water was made opaque with non-toxic white paint. A round platform (diameter 15 cm) was hidden 1 cm beneath the surface of the water at the center of a given quadrant of the water tank. COX-2 KO and WT mice received training in the Morris water maze for 5 days without any treatments (naïve). […] For each trial, the mouse was released from the wall of the tank and allowed to search, find, and stand on the platform for 10 seconds within the 60-second trial period. […] During the probe test, the platform was removed from the pool, and the task performances were recorded for 60 seconds by a video-camera and the task performances, including swimming paths, speed, and time spent in each quadrant using an EthoVision video tracking system (Noldus). The time spent in each quadrant was analyzed.

[11] = tested on: Aβ plaques; experiment: Aβ plaques in 5XFAD APP transgenic mice (immunohistochemistry); format: in vivo; details: Δ^9-THC 3 mg/kg once daily for 4 weeks
Description: Immunohistochemical analyses were performed to determine total Aβ in coronal brain sections as described previously (Chen et al., 2012). 5XFAD APP transgenic mice that vehicle, or Δ^9-THC (3 mg/kg) or Δ^9-THC+Celebrex (1 mg/kg) for 4 weeks at 4 to 6 months of age were anesthetized with ketamine/Xylazine (200/10 mg/kg) and subsequently transcardially perfused with PBS followed by 4% paraformaldehyde in phosphate buffer. The brains were quickly removed from the skulls and fixed in 4% paraformaldehyde overnight, and then transferred into the PBS containing 30% sucrose until sinking to the bottom of the small glass jars. Cryostat sectioning was made on a freezing Vibratome at 40 μm and series sections (10 to 12 slices) were collected in 0.1M phosphate buffer. […] 4′-6-Diamidino-2-phenylindole (DAPI), a fluorescent stain that binds strongly to DNA, was used it to detect cell nuclei in the sections. The sections were then mounted on slides for immunofluorescence detection using a Zeiss fluorescence microscope.

`CCCCCc1cc(O)c2c(c1)OC(C)(C)[C@@H]1CCC(C)=C[C@@H]21` [Δ^9-THC, Δ^9-tetrahydrocannabinol] was tested, and the “COX-2 expression in neuronal and astroglial cell-enriched cultures” value [1] was “CB1R-dependent increase in COX-2 expression both in neuronal and astroglial cell-enriched cultures”, the “hippocampal PGE2 production after cannabinoid injection” value [2] was “elevated production of prostaglandin E2 (PGE2)” and the “binding of NF-κB p65 to ptgs2 promoter positions −419 to −428 bp” value [3] was “enhanced”. The “phosphorylation of hippocampal CREB” value [4] was “reduced expression of glutamate receptor subunits and phosphorylation of CREB”, the “expression of neprilysin (NEP)” value [5] was “increases expression of neprilysin (NEP)” and the “fear memory after repeated Δ^9-THC” value [6] was “impaired fear memory”. The “phosphorylation of Akt, ERK, and p38MAPK” value [7] was “induced phosphorylation of these signaling molecules”, the “hippocampal COX-1 expression” value [8] was “unaffected” and the “hippocampal COX-2 expression after cannabinoid injection” value ([9]; single i.p. injection, CP55,940 10 mg/kg, detected 4 hrs) was “dose- and time-dependent induction of COX-2 in the brain”. For the same compound, the “hippocampal COX-2 expression after repeated injections” value ([9]; Δ^9-THC 10 mg/kg i.p. once daily for 7 consecutive days, analyzed 24 hrs after last injection) was “steadily elevated”, the “spatial memory and memory retention after repeated Δ^9-THC” value [10] was “impaired spatial memory and memory retention” and the “numbers of Aβ plaques” value ([11]; absence of Celebrex) was “significantly reduced”. The “numbers of Aβ plaques” value ([11]; presence of Celebrex 1 mg/kg) was “significantly reduced”.
